According to patent US5135947A, “1-phenyl-3-naphthalenyloxypropanamines and their use as selective serotonin reuptake inhibitors” (Eli Lilly and Company, priority 1990, dated 1992):
Where a name gives a salt, the structure may show the parent alone.

Each molecule was assayed on 5HT uptake (assay: Inhibition of 5HT uptake in vitro (synaptosomal uptake of 3H-serotonin, rat cortical synaptosomes)). Details: 50 nM 3H-5HT, cortical synaptosomes, 37° C., 5 min.
Assay type: biochemical, rat (male Sprague-Dawley)
Description: This general procedure is set forth by Wong et al., in Drug Development Research 6:397-403 (1985).
Male Sprague-Dawley rats (110-150 g) from Harlan Industries (Cumberland, Ind.) were fed Purina Chow ad libitum for at least 3 days before being used in the studies. Rats were killed by decapitation. Whole brains were removed and dissected. Cerebral cortex was homogenized in 9 volumes of a medium containing 0.32M sucrose and 10 mM glucose. Crude synaptosomal preparations were isolated after differential centrifugation at 1,000 g for 10 min. and 17,000 g for 28 min. The final pellets were suspended in the same medium and kept in ice until use within the same day.
Synaptosomal uptake of ^3 H-serotonin(^3 H-5-hydroxytryptamine, ^3 H-5HT) was determined as follows. Cortical synaptosomes (equivalent to 1 mg of protein) were incubated at 37° C. for 5 min in 1 ml of Krebs-bicarbonate medium containing also 10 mM glucose, 0.1 mM iproniazid, 1 mM ascorbic acid, 0.17 mM EDTA and 50 nM ^3 H-5HT The reaction mixture was immediately diluted with 2 ml of ice-chilled Krebs-bicarbonatebuffer and filtered under vacuum with a cell harvester (Brandel, Gaithersburg, Md.). Filters were rinsed twice with approximately 5 ml of ice-chilled 0.9% saline and were transferred to a counting vial containing 10 ml of scintillation fluid (PCS, Amersham, Arlington Heights, Ill.). Radioactivity was measured by a liquid scintillation spectrophotometer. Accumulation of ^3 H-5HT at 4° C. represented the background and was subtracted from all samples.
The numbers in parentheses represent percent inhibition at 1000 nM.
In the case of `CN(C)C(CCOc1cccc2ccccc12)c1ccccc1` (single isomer, unassigned) [Example 36, (+)-N,N-Dimethyl-1-phenyl-3-(1-naphthalenyloxy)propanamine (+)-tartrate], the IC50 is reported as 10 nM.
`CN(C)C(CCOc1cccc2ccccc12)c1ccccc1` (single isomer, unassigned) [Example 37, (-)-N,N-Dimethyl-1-phenyl-3-(1-naphthalenyloxy)propanamine (-)-tartrate] gave an IC50 of 35 nM.
With `Cc1ccc(OCCC(N)c2ccccc2)c2ccccc12` (stereo not shown) [Example 1, 1-Phenyl-3-(4-methyl-1-naphthalenyloxy)propanamine oxalate] the IC50 was 90 nM.
In the case of `Cc1ccc(OCCC(c2ccccc2)N(C)C)c2ccccc12` (stereo not shown) [Example 2, N,N-Dimethyl-1-phenyl-3-(4-methyl-1-naphthalenyloxy)propanamine oxalate], the IC50 is reported as 25 nM.
Work on `CNC(CCOc1ccc(C)c2ccccc12)c1ccccc1` (stereo not shown) [Example 3, N-Methyl-1-phenyl-3-(4-methyl-1-naphthalenyloxy)propanamine oxalate] yielded an IC50 of 37 nM.
Molecule `COc1ccc(OCCC(c2ccccc2)N(C)C)c2ccccc12` (stereo not shown) [Example 5, N,N-Dimethyl-1-phenyl-3-(4-methoxy-1-naphthalenyloxy)propanamine oxalate] has an IC50 of 210 nM.
Molecule `NC(CCOc1cccc2ccccc12)c1ccccc1C(F)(F)F` (stereo not shown) [Example 6, 1-[2-(Trifluoromethyl)phenyl]-3-(1-naphthalenyloxy)propanamine oxalate] has an IC50 of 180 nM.
For `CN(C)C(CCOc1cccc2ccccc12)c1ccccc1C(F)(F)F` (stereo not shown) [Example 7, N,N-Dimethyl-1-[2-(trifluoromethyl)phenyl]-3-(1-naphthalenyloxy)propanamineoxalate], the IC50 was 260 nM.
With `CN(C)C(CCOc1cccc2ccccc12)c1cccc(C(F)(F)F)c1` (stereo not shown) [Example 9, N,N-Dimethyl-1-[3-(trifluoromethyl)phenyl]-3-(1-naphthalenyloxy)propanamineoxlate] the IC50 was 500 nM.
`NC(CCOc1cccc2ccccc12)c1ccccc1Cl` (stereo not shown) [Example 10, 1-(2-Chlorophenyl)-3-(1-naphthalenyloxy)propanamine oxalate] was tested, and the IC50 was 76 nM.
In the case of `CN(C)C(CCOc1cccc2ccccc12)c1ccccc1Cl` (stereo not shown) [Example 11, N,N-Dimethyl-1-(2-chlorophenyl)-3-(1-naphthalenyloxy)propanamine oxalate], the IC50 is reported as 33 nM.
`NC(CCOc1cccc2ccccc12)c1cccc(Cl)c1` (stereo not shown) [Example 12, 1-(3-Chlorophenyl)-3-(1-naphthalenyloxy)propanamine oxalate] gave an IC50 of 150 nM.
For `CN(C)C(CCOc1cccc2ccccc12)c1cccc(Cl)c1` (stereo not shown) [Example 13, N,N-Dimethyl-1-(3-chlorophenyl)-3-(1-naphthalenyloxy)propanamine oxalate], the IC50 was 72 nM.
For `NC(CCOc1cccc2ccccc12)c1ccc(Cl)cc1` (stereo not shown) [Example 14, 1-(4-Chlorophenyl)-3-(1-naphthalenyloxy)propanamine oxalate], the IC50 was 400 nM.
In the case of `CN(C)C(CCOc1cccc2ccccc12)c1ccc(Cl)cc1` (stereo not shown) [Example 15, N,N-Dimethyl-1-(4-chlorophenyl)-3-(1-naphthalenyloxy)propanamine oxalate], the IC50 is reported as 110 nM.
With `COc1ccc(C(N)CCOc2cccc3ccccc23)cc1` (stereo not shown) [Example 16, 1-(4-Methoxyphenyl)-3-(1-naphthalenyloxy)propanamine oxalate] the IC50 was 100 nM.
For `COc1ccc(C(CCOc2cccc3ccccc23)N(C)C)cc1` (stereo not shown) [Example 17, N,N-Dimethyl-1-(4-methoxyphenyl)-3-(1-naphthalenyloxy)propanamine oxalate], the IC50 was 32 nM.
In the case of `COc1cccc(C(N)CCOc2cccc3ccccc23)c1` (stereo not shown) [Example 18, 1-(3-Methoxyphenyl)-3-(1-naphthalenyloxy)propanamine hydrochloride], the IC50 is reported as 84 nM.
`COc1cccc(C(CCOc2cccc3ccccc23)N(C)C)c1` (stereo not shown) [Example 19, N,N-Dimethyl-1-(3-methoxyphenyl)-3-(1-naphthalenyloxy)propanamine oxalate] was tested, and the IC50 was 29 nM.
Molecule `COc1ccccc1C(CCOc1cccc2ccccc12)N(C)C` (stereo not shown) [Example 21, N,N-Dimethyl-1-(2-methoxyphenyl)-3-(1-naphthalenyloxy)propanamine oxalate] has an IC50 of 16 nM.
`CNC(CCOc1cccc2ccccc12)c1ccc2c(c1)OCO2` (stereo not shown) [Example 24, oxalate] showed an IC50 of 47 nM.
`CN(C)C(CCOc1cccc2ccccc12)c1ccc(F)cc1` (stereo not shown) [Example 25, N,N-Dimethyl-1-(4-fluorophenyl)-3-(1-naphthalenyloxy)propanamine oxalate] showed an IC50 of 50 nM.
`Cc1ccc(C(CCOc2cccc3ccccc23)N(C)C)cc1` (stereo not shown) [Example 26, N,N-Dimethyl-1-(4-methylphenyl)-3-(1-naphthalenyloxy)propanamine oxalate] gave an IC50 of 80 nM.
With `CN(C)C(CCOc1cccc2ccccc12)c1ccccc1` (stereo not shown) [Example 27, N,N-Dimethyl-1-phenyl-3-(1-naphthalenyloxy)propanamine oxalate] the IC50 was 10 nM.
In the case of `CN(C)C(CCOc1ccc(C(F)(F)F)c2ccccc12)c1ccccc1` (stereo not shown) [Example 29, N,N-Dimethyl-1-phenyl-3-[4-(trifluoromethyl)-1-naphthalenyloxy)propanamine oxalate], the IC50 is reported as 800 nM.
With `Cc1ccccc1C(CCOc1cccc2ccccc12)N(C)C` (stereo not shown) [Example 30, N,N-Dimethyl-1-(2-methylphenyl)-3-(1-naphthalenyloxy)propanamine oxalate] the IC50 was 10 nM.
`CN(C)C(CCOc1cccc2ccccc12)c1ccc(C(F)(F)F)cc1` (stereo not shown) [Example 31, N,N-Dimethyl-1-[4-(trifluoromethyl)phenyl]-3-(1-naphthalenyloxy)propanamineoxalate] gave an IC50 of 195 nM.
Molecule `Cc1cccc(C(CCOc2cccc3ccccc23)N(C)C)c1` (stereo not shown) [Example 32, N,N-Dimethyl-1-(3-methylphenyl)-3-(1-naphthalenyloxy)propanamine oxalate] has an IC50 of 13 nM.
Molecule `CNC(CCOc1cccc2ccccc12)c1ccccc1` (stereo not shown) [Example 33, N-Methyl-1-phenyl-3-(1-naphthalenyloxy)propanamine oxalate] has an IC50 of 35 nM.
`CN(C)C(CCOc1ccc(Cl)c2ccccc12)c1ccccc1` (stereo not shown) [Example 34, N,N-Dimethyl-1-phenyl-3-(4-chloro-1-naphthalenyloxy)propanamine oxalate] gave an IC50 of 88 nM.
In the case of `NC(CCOc1cccc2ccccc12)c1ccccc1` (stereo not shown) [Example 35, 1-Phenyl-3-(1-naphthalenyloxy)propanamine oxalate], the IC50 is reported as 80 nM.

Same assay, conditions: at 1000 nM; numbers in parentheses; 50 nM 3H-5HT, 37° C., 5 min
With `COc1ccc(OCCC(N)c2ccccc2)c2ccccc12` (stereo not shown) [Example 4, 1-Phenyl-3-(4-methoxy-1-naphthalenyloxy)propanamine oxalate] the “percent inhibition at 1000 nM” value was 39%.
For `NC(CCOc1cccc2ccccc12)c1cccc(C(F)(F)F)c1` (stereo not shown) [Example 8, 1-[3-(Trifluoromethyl)phenyl]-3-(1-naphthalenyloxy)propanamine oxalate], the “percent inhibition at 1000 nM” value was 43%.
For `COc1ccccc1C(N)CCOc1cccc2ccccc12` (stereo not shown) [Example 20, 1-(2-Methoxyphenyl)-3-(1-naphthalenyloxy)propanamine oxalate], the “percent inhibition at 1000 nM” value was 25%.
